From ChEMBL document CHEMBL5723587, “Data for DCP probe BI-113823” (2024)
Active and inactive are the calls of the source.

Columns and labels:
[1] = target: ATP-sensitive inward rectifier potassium channel 1 isoform X1 (Mesocricetus auratus) (UniProt A0A1U8CU73); assay: Activity against K+/KATP/HA in the Eurofins SafetyScreen44 (BI) by Radioactive Assay; conditions: Cricetinae; Compound concentration 10.0 uM
[2] = target: Beta-2 adrenergic receptor (Homo sapiens) (UniProt P07550); assay: Activity against BETA2/HU in the Eurofins SafetyScreen44 (BI) by Radioactive Assay; conditions: Compound concentration 10.0 uM
[3] = target: 3',5'-cyclic-AMP phosphodiesterase 4A (Rattus norvegicus) (UniProt P54748); assay: Activity against ROLIPRAM/R in the Eurofins SafetyScreen44 (BI) by Radioligand Binding; conditions: Compound concentration 10.0 uM
[4] = target: 5-hydroxytryptamine receptor 1A (Homo sapiens) (UniProt P08908); assay: Activity against 5HT1A/HU in the Eurofins SafetyScreen44 (BI) by Radioactive Assay; conditions: Compound concentration 10.0 uM
Chain of 5-hydroxytryptamine receptor 1A (Homo sapiens) (P08908 whole entry): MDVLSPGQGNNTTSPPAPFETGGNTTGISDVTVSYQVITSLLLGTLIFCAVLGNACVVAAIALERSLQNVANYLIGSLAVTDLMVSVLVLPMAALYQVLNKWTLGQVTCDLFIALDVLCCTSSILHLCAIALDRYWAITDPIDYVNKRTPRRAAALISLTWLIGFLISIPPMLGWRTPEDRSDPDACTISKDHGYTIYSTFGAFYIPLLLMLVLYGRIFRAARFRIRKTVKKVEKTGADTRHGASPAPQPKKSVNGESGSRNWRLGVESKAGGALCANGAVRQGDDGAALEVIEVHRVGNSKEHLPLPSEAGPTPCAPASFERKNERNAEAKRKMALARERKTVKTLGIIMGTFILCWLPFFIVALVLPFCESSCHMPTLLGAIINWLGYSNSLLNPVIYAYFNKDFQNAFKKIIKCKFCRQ

[5] = target: Histamine H2 receptor (Homo sapiens) (UniProt P25021); assay: Activity against H2/H in the Eurofins SafetyScreen44 (BI) by Radioactive Assay; conditions: Compound concentration 10.0 uM
Chain of Histamine H2 receptor (Homo sapiens) (P25021 whole entry): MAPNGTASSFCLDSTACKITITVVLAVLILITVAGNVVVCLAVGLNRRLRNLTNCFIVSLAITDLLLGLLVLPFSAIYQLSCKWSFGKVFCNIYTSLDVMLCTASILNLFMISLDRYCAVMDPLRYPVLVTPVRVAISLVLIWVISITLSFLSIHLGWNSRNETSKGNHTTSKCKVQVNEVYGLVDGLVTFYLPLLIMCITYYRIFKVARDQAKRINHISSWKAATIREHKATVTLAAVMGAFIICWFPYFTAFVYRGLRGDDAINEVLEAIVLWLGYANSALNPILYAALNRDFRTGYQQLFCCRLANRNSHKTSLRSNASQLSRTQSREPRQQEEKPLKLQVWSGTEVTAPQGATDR

[6] = target: P2Y purinoceptor 1 (Rattus norvegicus) (UniProt P49651); assay: Activity against P2Y/RAT in the Eurofins SafetyScreen44 (BI) by Radioactive Assay; conditions: Compound concentration 10.0 uM
B2 bradykinin receptor = B2 bradykinin receptor (Homo sapiens, UniProt P30411); assay: Radioligand binding assay (displacement of kallidin, human BDKRB2 ) at 10 µM ( Non-specific binding is estimated in the presence of 10 µM Des-Arg9- (Leu8)-Bradykinin. Membranes are filtered and washed, the filters are then counted to determine [3H]Kallidin[des-Arg10, Leu9] specifically bound.); parameters: compound concentration 10 uM
Chain of B2 bradykinin receptor (P30411 whole entry): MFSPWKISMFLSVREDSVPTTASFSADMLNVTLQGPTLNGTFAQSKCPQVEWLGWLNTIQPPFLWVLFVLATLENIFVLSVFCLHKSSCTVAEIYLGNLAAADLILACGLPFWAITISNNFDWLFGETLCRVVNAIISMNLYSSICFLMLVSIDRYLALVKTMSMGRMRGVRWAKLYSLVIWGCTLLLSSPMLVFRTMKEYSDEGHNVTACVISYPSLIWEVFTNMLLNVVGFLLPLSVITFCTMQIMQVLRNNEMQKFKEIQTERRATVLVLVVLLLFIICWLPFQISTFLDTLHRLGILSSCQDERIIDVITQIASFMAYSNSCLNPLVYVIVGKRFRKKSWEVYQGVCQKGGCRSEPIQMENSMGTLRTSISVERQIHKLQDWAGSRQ

[7] = target: Sigma intracellular receptor 2 (Rattus norvegicus) (UniProt Q5U3Y7); assay: Activity against SIGMA2/R in the Eurofins SafetyScreen44 (BI) by Radioactive Assay; conditions: Compound concentration 10.0 uM
Chain of Sigma intracellular receptor 2 (Rattus norvegicus) (Q5U3Y7 whole entry): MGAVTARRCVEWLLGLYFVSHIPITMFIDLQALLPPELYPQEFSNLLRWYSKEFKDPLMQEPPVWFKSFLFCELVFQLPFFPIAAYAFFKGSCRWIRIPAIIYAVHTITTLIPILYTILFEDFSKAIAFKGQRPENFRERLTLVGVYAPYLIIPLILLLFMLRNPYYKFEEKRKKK

[8] = target: Acetylcholine receptor subunit alpha (Homo sapiens) (UniProt P02708); assay: Activity against NACH/H in the Eurofins SafetyScreen44 (BI) by Radioligand Binding; conditions: Compound concentration 10.0 uM
[9] = target: Type-1 angiotensin II receptor (Homo sapiens) (UniProt P30556); assay: Activity against AT1/HU in the Eurofins SafetyScreen44 (BI) by Radioligand Binding; conditions: Compound concentration 10.0 uM
[10] = target: Neuropeptide Y receptor type 2 (Homo sapiens) (UniProt P49146); assay: Activity against Y2/HU in the Eurofins SafetyScreen44 (BI) by Radioactive Assay; conditions: Compound concentration 10.0 uM
[11] = target: B1 bradykinin receptor (Homo sapiens) (UniProt P46663); assay: Activity against B1/H in the Eurofins SafetyScreen44 (BI) by Radioactive Assay; conditions: Compound concentration 10.0 uM
[12] = target: Delta-type opioid receptor (Homo sapiens) (UniProt P41143); assay: Activity against DELTA/HU in the Eurofins SafetyScreen44 (BI) by Radioactive Assay; conditions: Compound concentration 10.0 uM
[13] = target: Neuropeptide Y receptor type 1 (Homo sapiens) (UniProt P25929); assay: Activity against Y1/HU in the Eurofins SafetyScreen44 (BI) by Radioactive Assay; conditions: Compound concentration 10.0 uM
[14] = target: Sigma non-opioid intracellular receptor 1 (Homo sapiens) (UniProt Q99720); assay: Activity against SIGMA1/HU in the Eurofins SafetyScreen44 (BI) by Radioactive Assay; conditions: Compound concentration 10.0 uM
Chain of Sigma non-opioid intracellular receptor 1 (Homo sapiens) (Q99720 whole entry): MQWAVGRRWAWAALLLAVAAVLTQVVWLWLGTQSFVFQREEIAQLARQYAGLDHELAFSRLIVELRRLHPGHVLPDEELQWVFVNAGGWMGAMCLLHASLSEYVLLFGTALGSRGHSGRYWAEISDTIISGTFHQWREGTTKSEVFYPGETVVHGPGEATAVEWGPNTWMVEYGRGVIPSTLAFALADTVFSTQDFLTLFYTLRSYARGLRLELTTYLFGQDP

[15] = target: Protein kinase C alpha type (Mus musculus) (UniProt P20444); assay: Inhibitor of PHORBOLE/M in the Eurofins SafetyScreen44 (BI) by Radioactive Assay; conditions: Compound concentration 10.0 uM
[16] = target: Muscarinic acetylcholine receptor M3 (Homo sapiens) (UniProt P20309); assay: Activity against M3/HU in the Eurofins SafetyScreen44 (BI) by Radioactive Assay; conditions: Compound concentration 10.0 uM
[17] = target: Epidermal growth factor receptor (Homo sapiens) (UniProt P00533); assay: Activity against EGF/HU in the Eurofins SafetyScreen44 (BI) by Radioactive Assay; conditions: Compound concentration 10.0 uM
[18] = Activity against I2/CENTR/R in the Eurofins SafetyScreen44 (BI) by Radioactive Assay; conditions: Rattus norvegicus; Compound concentration 10.0 uM
[19] = target: Alpha-1D adrenergic receptor (Homo sapiens) (UniProt P25100); assay: Activity against ALPHA1D/H in the Eurofins SafetyScreen44 (BI) by Others; conditions: Compound concentration 10.0 uM
[20] = target: Histamine H1 receptor (Homo sapiens) (UniProt P35367); assay: Activity against H1/H in the Eurofins SafetyScreen44 (BI) by Radioactive Assay; conditions: Compound concentration 10.0 uM
hERG (KCNH2) = hERG (KCNH2) (Homo sapiens, UniProt Q12809); assay: Activity against K+/HERG in the Eurofins SafetyScreen44 (BI) by Radioactive Assay; conditions: compound concentration 10 uM, read-out: % Ctrl
[21] = target: Glutamate receptor ionotropic, NMDA 2A (Rattus norvegicus) (UniProt Q00959); assay: Activity against NMDAPHSI/R in the Eurofins SafetyScreen44 (BI) by Radioactive Assay; conditions: Compound concentration 10.0 uM
Chain of Glutamate receptor ionotropic, NMDA 2A (Rattus norvegicus) (Q00959 23-1464 limits assumed): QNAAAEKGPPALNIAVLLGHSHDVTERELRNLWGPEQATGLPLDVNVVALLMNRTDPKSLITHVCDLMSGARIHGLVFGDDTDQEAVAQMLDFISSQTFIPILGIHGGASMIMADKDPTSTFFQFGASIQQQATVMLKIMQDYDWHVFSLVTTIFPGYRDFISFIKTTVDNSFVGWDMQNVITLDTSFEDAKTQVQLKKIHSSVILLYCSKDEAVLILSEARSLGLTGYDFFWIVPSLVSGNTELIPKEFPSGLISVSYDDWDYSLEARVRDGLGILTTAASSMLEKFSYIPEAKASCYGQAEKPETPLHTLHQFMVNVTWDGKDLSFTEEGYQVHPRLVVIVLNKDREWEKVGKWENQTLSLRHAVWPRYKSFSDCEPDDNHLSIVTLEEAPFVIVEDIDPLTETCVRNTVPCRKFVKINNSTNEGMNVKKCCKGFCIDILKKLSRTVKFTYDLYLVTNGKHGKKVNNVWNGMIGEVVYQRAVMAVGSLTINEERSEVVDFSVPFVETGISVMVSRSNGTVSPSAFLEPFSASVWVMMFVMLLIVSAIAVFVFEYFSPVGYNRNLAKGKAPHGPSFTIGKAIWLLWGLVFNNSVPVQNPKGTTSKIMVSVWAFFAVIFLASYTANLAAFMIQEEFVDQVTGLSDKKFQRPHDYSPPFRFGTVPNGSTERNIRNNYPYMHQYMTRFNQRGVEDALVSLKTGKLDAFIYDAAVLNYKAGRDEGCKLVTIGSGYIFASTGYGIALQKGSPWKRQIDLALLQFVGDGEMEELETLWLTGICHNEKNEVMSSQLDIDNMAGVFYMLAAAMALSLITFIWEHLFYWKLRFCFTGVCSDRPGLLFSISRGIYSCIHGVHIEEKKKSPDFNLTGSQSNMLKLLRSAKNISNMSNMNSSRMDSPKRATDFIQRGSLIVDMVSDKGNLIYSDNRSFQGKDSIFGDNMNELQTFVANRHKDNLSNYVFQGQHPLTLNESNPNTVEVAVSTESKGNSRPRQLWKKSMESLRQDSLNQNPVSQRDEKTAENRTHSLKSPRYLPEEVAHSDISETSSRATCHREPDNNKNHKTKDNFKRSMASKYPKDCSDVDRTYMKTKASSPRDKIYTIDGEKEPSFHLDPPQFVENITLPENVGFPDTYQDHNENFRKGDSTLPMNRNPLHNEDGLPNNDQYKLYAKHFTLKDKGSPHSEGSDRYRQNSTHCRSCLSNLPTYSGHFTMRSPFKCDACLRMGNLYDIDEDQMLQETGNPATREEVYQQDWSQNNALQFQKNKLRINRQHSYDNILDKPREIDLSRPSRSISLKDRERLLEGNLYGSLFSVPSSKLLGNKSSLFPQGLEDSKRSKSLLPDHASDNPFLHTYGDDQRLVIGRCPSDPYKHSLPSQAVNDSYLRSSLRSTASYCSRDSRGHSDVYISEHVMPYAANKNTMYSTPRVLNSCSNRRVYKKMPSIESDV

[22] = target: Muscarinic acetylcholine receptor M2 (Homo sapiens) (UniProt P08172); assay: Activity against M2/HU in the Eurofins SafetyScreen44 (BI) by Radioactive Assay; conditions: Compound concentration 10.0 uM
[23] = target: Sodium-dependent noradrenaline transporter (Homo sapiens) (UniProt P23975); assay: Activity against NETRANS/H in the Eurofins SafetyScreen44 (BI) by Radioactive Assay; conditions: Compound concentration 10.0 uM
Rattus norvegicus = species on record: Rattus norvegicus; assay: Activity against CA+/DHPSI/RA in the Eurofins SafetyScreen44 (BI) by Radioactive Assay; conditions: Compound concentration 10.0 uM
[24] = target: 5-hydroxytryptamine receptor 3A (Homo sapiens) (UniProt P46098); assay: Activity against 5HT3/HU in the Eurofins SafetyScreen44 (BI) by Others; conditions: Compound concentration 10.0 uM
[25] = target: Histamine H3 receptor (Homo sapiens) (UniProt Q9Y5N1); assay: Activity against H3/H in the Eurofins SafetyScreen44 (BI) by Radioactive Assay; conditions: Compound concentration 10.0 uM
Chain of Histamine H3 receptor (Homo sapiens) (Q9Y5N1 whole entry): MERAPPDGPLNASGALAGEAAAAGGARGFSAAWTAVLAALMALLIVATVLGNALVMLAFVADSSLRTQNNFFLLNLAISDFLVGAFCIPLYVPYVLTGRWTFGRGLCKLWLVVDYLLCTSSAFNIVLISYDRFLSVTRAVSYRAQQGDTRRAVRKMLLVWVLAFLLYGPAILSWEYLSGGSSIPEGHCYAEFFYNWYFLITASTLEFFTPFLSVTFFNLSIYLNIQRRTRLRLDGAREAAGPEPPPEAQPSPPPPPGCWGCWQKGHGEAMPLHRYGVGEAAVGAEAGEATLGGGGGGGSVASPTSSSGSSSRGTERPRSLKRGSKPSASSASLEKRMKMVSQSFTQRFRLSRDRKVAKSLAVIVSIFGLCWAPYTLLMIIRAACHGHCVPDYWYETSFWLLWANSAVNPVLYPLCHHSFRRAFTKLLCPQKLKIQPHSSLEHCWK

[26] = target: L-type calcium channel, Cav1.2 alpha-1C (CA+/DILSI/RA) (Rattus norvegicus, UniProt P22002); assay: Activity against CA+/DILSI/RA in the Eurofins SafetyScreen44 (BI) by Radioactive Assay; conditions: compound concentration 10 uM, read-out: % Ctrl
[27] = target: Androgen receptor (Rattus norvegicus) (UniProt P15207); assay: Activity against TESTOST/RA in the Eurofins SafetyScreen44 (BI) by Others; conditions: Compound concentration 10.0 uM
[28] = target: Endothelin-1 receptor (Homo sapiens) (UniProt P25101); assay: Activity against ETA/HU in the Eurofins SafetyScreen44 (BI) by Radioactive Assay; conditions: Compound concentration 10.0 uM
[29] = target: Glutamate receptor ionotropic, kainate 1 (Rattus norvegicus) (UniProt P22756); assay: Activity against KAINATE/R in the Eurofins SafetyScreen44 (BI) by Radioactive Assay; conditions: Compound concentration 10.0 uM
B1 bradykinin receptor = B1 bradykinin receptor (Rattus norvegicus, UniProt P97583); assay: Radioligand binding assay (displacement of kallidin, rat BDKRB1 ) at 10 µM ( Non-specific binding is estimated in the presence of 10 µM Des-Arg9- (Leu8)-Bradykinin. Membranes are filtered and washed, the filters are then counted to determine [3H]Kallidin[des-Arg10, Leu9] specifically bound.); parameters: compound concentration 10 uM
[30] = target: Alpha-1A adrenergic receptor (Rattus norvegicus) (UniProt P43140); assay: Activity against ALPHA1A/R in the Eurofins SafetyScreen44 (BI) by Others; conditions: Compound concentration 10.0 uM
Chain of Alpha-1A adrenergic receptor (Rattus norvegicus) (P43140 whole entry, looked up): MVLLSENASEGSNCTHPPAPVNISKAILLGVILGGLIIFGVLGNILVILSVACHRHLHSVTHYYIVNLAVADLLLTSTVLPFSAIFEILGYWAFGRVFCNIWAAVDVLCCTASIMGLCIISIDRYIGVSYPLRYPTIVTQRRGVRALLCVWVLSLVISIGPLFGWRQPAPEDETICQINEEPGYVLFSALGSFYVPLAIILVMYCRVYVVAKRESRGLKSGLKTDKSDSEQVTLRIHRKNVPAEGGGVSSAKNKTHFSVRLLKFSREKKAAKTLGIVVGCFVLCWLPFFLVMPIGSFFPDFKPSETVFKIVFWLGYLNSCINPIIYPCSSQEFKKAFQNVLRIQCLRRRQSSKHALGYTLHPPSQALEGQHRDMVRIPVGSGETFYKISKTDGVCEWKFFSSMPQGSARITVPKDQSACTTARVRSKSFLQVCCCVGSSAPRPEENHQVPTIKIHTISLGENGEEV

Chain of ATP-sensitive inward rectifier potassium channel 1 isoform X1 (Mesocricetus auratus) (A0A1U8CU73 as listed by the source): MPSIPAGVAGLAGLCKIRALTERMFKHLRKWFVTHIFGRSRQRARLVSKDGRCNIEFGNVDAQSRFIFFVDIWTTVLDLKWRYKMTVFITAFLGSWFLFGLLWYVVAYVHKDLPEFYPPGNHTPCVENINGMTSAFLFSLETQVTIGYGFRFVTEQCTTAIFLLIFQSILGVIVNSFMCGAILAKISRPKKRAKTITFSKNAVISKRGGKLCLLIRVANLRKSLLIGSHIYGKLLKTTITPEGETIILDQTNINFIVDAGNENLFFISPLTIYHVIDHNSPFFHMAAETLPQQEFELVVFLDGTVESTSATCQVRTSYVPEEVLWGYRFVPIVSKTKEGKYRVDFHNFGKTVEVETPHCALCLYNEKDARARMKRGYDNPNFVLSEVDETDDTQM

COc1cc(C)c(S(=O)(=O)N(C)CCOCC(=O)N(C)[C@H]2CCC[C@@H](N3CCN(C)CC3)C2)c(C)c1
> 10 µM (not active): Ki (B2 bradykinin receptor)
70% (not active): activity at 10 µM (hERG (KCNH2))
inactive: residual activity [1] 90% | residual activity [2] 103% | residual activity [3] 84% | residual activity [4] 99% | residual activity [5] 93% | residual activity [6] 108% | residual activity [8] 100% | residual activity [9] 115% | residual activity [10] 111% | residual activity [12] 86% | residual activity [13] 109% | residual activity [15] 102% | residual activity [16] 84% | residual activity [17] 125% | residual activity [18] 60% | residual activity [19] 96% | residual activity [20] 85% | residual activity [21] 111% | residual activity [22] 61% | residual activity [23] 114% | residual activity (Rattus norvegicus) 94% | residual activity [24] 91% | residual activity [25] 77% | residual activity [27] 96% | residual activity [28] 96% | residual activity [29] 93% | residual activity [30] 118%
86% (not active): activity at 10 µM [26]
active: residual activity [7] 45% | residual activity [11] 22% | residual activity [14] 30% | Ki (B1 bradykinin receptor) 0.0133 µM
